≈ marks a conversion by molar mass, not a printed value. Read-outs that look alike come from different tables or passages of the source.
How the values were obtained:
Test in all cases: minimal inhibitory concentration (MIC) by two-fold agar-plate dilution method
Type in all cases: cell-based
Ps. Aeruginosa 721 = conditions: Pseudomonas aeruginosa, 10^6 viable cells per ml, HI-agar, 37° C., 20 hours
Method: (§1) For the purpose of illustrating of usefulness of the object compound(1) of this invention, the following minimal inhibitory concentrations of some representative compounds against some test strains will be shown.
(§2) The minimal inhibitory concentration (MIC) was determined by the two-fold agar-plate dilution method as described below.
(§3) One loopful of an overnight culture of each test strain in Trypticase-soy broth was streaked on heart infusion agar (HI-agar) containing graded concentrations of representative antibiotic, and the MICs were expressed in terms of μg/ml. after incubation at 37° C. for 20 hours.

B. Subtilis ATCC-6633 = conditions: Bacillus subtilis, ATCC6633, 10^8 viable cells per ml, HI-agar, 37° C., 20 hours
Method: as §2, §3

Sal. Enteritidis = conditions: Salmonella enterica, 10^8 viable cells per ml, HI-agar, 37° C., 20 hours
Method: as §2, §3

Staph. Aureus 209-P = conditions: Staphylococcus aureus, 10^8 viable cells per ml, HI-agar, 37° C., 20 hours
Method: as §2, §3

Ps. Aeruginosa = conditions: Pseudomonas aeruginosa
Method: as §2, §3

Sh flexneri 2a = conditions: 20 h
Method: as §1, §2, §3

[1] = Sal. Enteritidis, first part of table
[2] = Ps. Aeruginosa, 10^6 viable cells per ml, HI-agar, 37° C., 20 hours, read-out: MIC
[3] = ENTERITIDIS, Sal. Enteritides, second part of table

Row | MIC (Ps. Aeruginosa 721) [µg/mL] | Structure (SMILES) | MIC (Sh flexneri 2a) [µg/mL] | MIC (Ps. Aeruginosa; [2]) [µg/mL] | MIC (Sal. Enteritidis; [3]) [µg/mL] | also measured
1 | 0.39 (≈ 0.68 µM) | Cn1nnnc1SCC1=C(C(=O)O)N2C(=O)C(NC(=O)[C@H](NC(=O)c3nonc3O)c3ccccc3)[C@H]2SC1 (stereo partly drawn) [Example 1-1, 7-[D-2-(4-hydroxy-3-furazancarboxamido)-2-phenylacetamido]-3-(1-methyl-1H-tetrazol-5-ylthiomethyl)-3-cephem-4-carboxylic acid] |  |  |  | 
2 | 1.56 (≈ 2.46 µM) | Cn1nnnc1SCC1=C(C(=O)O)N2C(=O)C(NC(=O)[C@H](NC(=O)c3cnc4ccccn4c3=O)c3ccccc3)C2SC1 (stereo partly drawn) [Example 1-6, 7-[D-2-(4-oxo-4H-pyrido[1,2-a]pyrimidine-3-carboxamido)-2-phenylacetamide]-3-(1-methyl-1H-tetrazol-5-ylthiomethyl)-3-cephem-4-carboxylic acid] |  |  |  | 
3 | 0.39 (≈ 0.679 µM) | Cn1nnnc1SCC1=C(C(=O)O)N2C(=O)C(NC(=O)[C@H](NC(=O)N3CCOC3=O)c3ccccc3)[C@H]2SC1 (stereo partly drawn) [Example 1-10, 7-[D-2-(2-oxo-3-oxazolidinecarboxamido)-2-phenylacetamido]-3-(1-methyl-1H-tetrazol-5-ylthiomethyl)-3-cephem-4-carboxylic acid] |  |  |  | MIC (B. Subtilis ATCC-6633): 0.2 µg/mL (≈ 0.348 µM); MIC (Sal. Enteritidis; [1]): 0.78 µg/mL (≈ 1.36 µM); MIC (Staph. Aureus 209-P): 0.78 µg/mL (≈ 1.36 µM)
4 | 1.56 (≈ 2.55 µM) | Cn1nnnc1SCC1=C(C(=O)O)N2C(=O)C(NC(=O)[C@H](NC(=O)Cc3cc(=O)[nH]c(=N)[nH]3)c3ccccc3)C2SC1 (some centres unmarked) [Example 1-16] |  |  |  | 
5 | 0.78 (≈ 1.26 µM) | Cn1nnnc1SCC1=C(C(=O)O)N2C(=O)C(NC(=O)[C@H](NC(=O)c3cc(Cl)n[nH]c3=O)c3ccccc3)[C@H]2SC1 (stereo partly drawn) [Example 1-20, 7-[D-2-(3-oxo-6-chloro-2,3-dihydro-4-pyridazinecarboxamido)-2-phenylacetamido]-3-(1-methyl-1H-tetrazol-5-ylthiomethyl)-3-cephem-4-carboxylic acid] |  |  |  | 
6 |  | Cc1[nH]cc(OCC(=O)N[C@@H](C(=O)NC2C(=O)N3C(C(=O)[O-])=C(CSc4nnnn4C)CS[C@H]23)c2ccccc2)c(=O)c1Cl.[Na+] (stereo partly drawn) [Example 1-31, sodium 7-{D-2-[2-(4-oxo-5-chloro-6-methyl-1,4-dihydropyridin-3-yloxy)acetamido]-2-phenylacetamido}-3-(1-methyl-1H-tetrazol-5-ylthiomethyl)-3-cephem-4-carboxylate] | 0.2 |  |  | MIC (B. Subtilis ATCC-6633): 0.78 µg/mL; MIC (Ps. Aeruginosa; 20 h): 0.78 µg/mL; MIC (Sal. Enteritidis; [1]): 0.39 µg/mL; MIC (Staph. Aureus 209-P): 1.56 µg/mL
7 |  | Cn1nnnc1SCC1=C(C(=O)O)N2C(=O)C(NC(=O)[C@H](NC(=O)COc3c[nH]c(CO)c(Cl)c3=O)c3ccccc3)[C@H]2SC1 (stereo partly drawn) [Example 1-34, 7-{D-2-[2-(4-oxo-5-chloro-6-hydroxymethyl-1,4-dihydropyridin-3-yloxy)-acetamido]-2-phenylacetamido}-3-(1-methyl-1H-tetrazol-5-ylthiomethyl)-3-cephem-4-carboxylic acid] | 0.2 (≈ 0.295 µM) | 0.78 (≈ 1.15 µM) | 0.2 (≈ 0.295 µM) | 
8 |  | Cn1nnnc1SCC1=C(C(=O)O)N2C(=O)C(NC(=O)[C@H](NC(=O)COc3c[nH]c(CCl)cc3=O)c3ccccc3)C2SC1 (stereo partly drawn) [Example 1-35, 7-{D-2-[2-(4-oxo-6-chloromethyl-1,4-dihydropyridin-3-yloxy)acetamido]-2-penylacetamido}-3-(1-methyl-1H-tetrazol-5-ylthiomethyl)-3-cephem-4-carboxylicacid] | 0.39 (≈ 0.59 µM) | 0.78 (≈ 1.18 µM) | 0.39 (≈ 0.59 µM) | 
9 |  | Cc1cc(=O)c(OCC(=O)N[C@@H](C(=O)NC2C(=O)N3C(C(=O)O)=C(CSc4nnnn4C)CSC23)c2ccccc2)c[nH]1 (stereo partly drawn) [Example 1-36, 7-{D-2-[2-(4-oxo-6-methyl-1,4-dihydropyridin-3-yloxy)acetamido]-2-phenylacetamido}-3-(1-methyl-1H-tetrazol-5-ylthiomethyl)-3-cephem-4-carboxylic acidm] | 0.39 (≈ 0.622 µM) | 1.56 (≈ 2.49 µM) | 0.78 (≈ 1.24 µM) | 
10 |  | Cc1[nH]cc(OCC(=O)N[C@@H](C(=O)NC2C(=O)N3C(C(=O)O)=C(CSc4nnnn4C)CSC23)c2ccc(O)cc2)c(=O)c1Cl (stereo partly drawn) [Example 1-37, 7-{D-2-[2-(4-oxo-5-chloro-6-methyl-1,4-dihydropyridin-3-yloxy)acetamido]-2-(4-hydroxy)phenylacetamido} -3-(1-methyl-1H-tetrazol-5-ylthiomethyl)-3-cephem-4-carboxylic acid] | 0.1 (≈ 0.148 µM) | 0.78 (≈ 1.15 µM) | 0.05 (≈ 0.0738 µM) | 
11 | 0.39 (≈ 0.66 µM) | Cn1nnnc1SCC1=C(C(=O)O)N2C(=O)C(NC(=O)[C@H](NC(=O)N3CCOC3=O)c3ccc(O)cc3)[C@H]2SC1 (stereo partly drawn) [Example 2-1, 7-[D-2-(2-oxo-3-oxazolidinecarboxamido)-2-(4-hydroxyphenyl)acetamido]-3-(1-methyl-1H-tetrazol-5-ylthiomethyl)-3-cephem-4-carboxylic acid] |  |  |  | 

— patent publication US4172198A, “7-(N-substituted-2-phenylglycinamido)-3-sub stituted-3-cephem-4-carboxylic acid compounds and preparation thereof” (Fujisawa Pharmaceutical Co., Ltd., priority 1976, dated 1979)
